Source: PubChem BioAssay (NCI)
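Method: 48-hour compound exposure of cells in 96-well plates, five concentrations, linear interpolation of endpoints. At the GI50, growth is halved. TGI is the concentration that stops growth completely.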

Assays:
Assay in all cases: DTP human tumour cell line panel, 48 h; in the data active = GI50 below about 0.43 µM; inactive = the rest
[1] = tested on: NCI-H460 lung
[2] = tested on: LOX IMVI melanoma
[3] = tested on: U251 CNS
[4] = tested on: CAKI-1 renal
[5] = tested on: 786-0 renal
[6] = tested on: UACC-257 melanoma
[7] = tested on: SNB-75 CNS
[8] = tested on: DU-145 prostate
[9] = tested on: OVCAR-5 ovarian
[10] = tested on: RPMI-8226 leukemia
[11] = tested on: SK-MEL-2 melanoma
[12] = tested on: RXF 393 renal
[13] = tested on: SF-295 CNS
[14] = tested on: KM12 colon
[15] = tested on: SR leukemia
[16] = tested on: IGROV1 ovarian
[17] = tested on: MOLT-4 leukemia
[18] = tested on: SK-OV-3 ovarian
[19] = tested on: NCI-H522 lung
[20] = tested on: PC-3 prostate
[21] = tested on: M14 melanoma
[22] = tested on: CCRF-CEM leukemia
[23] = tested on: EKVX NSCLC
[24] = tested on: SF-268 CNS
[25] = tested on: MCF7 breast
[26] = tested on: HOP-92 NSCLC
[27] = tested on: TK-10 renal
[28] = tested on: OVCAR-3 ovarian
[29] = tested on: SK-MEL-5 melanoma
[30] = tested on: HL-60(TB) leukemia
[31] = tested on: HCC-2998 colon
[32] = tested on: SW-620 colon
[33] = tested on: OVCAR-4 ovarian
[34] = tested on: MDA-MB-435
[35] = tested on: NCI-H226 lung
[36] = tested on: SF-539 CNS
[37] = tested on: MDA-MB-231 breast
[38] = tested on: UACC-62 melanoma
[39] = tested on: HS 578T breast
[40] = tested on: A498 renal
[41] = tested on: HOP-62 NSCLC
[42] = tested on: K-562 leukemia
[43] = tested on: HCT-116 colon
[44] = tested on: T-47D breast
[45] = tested on: MALME-3M melanoma
[46] = tested on: SK-MEL-28 melanoma
[47] = tested on: ACHN renal
[48] = tested on: BT-549 breast
[49] = tested on: UO-31 renal
[50] = tested on: SNB-19 CNS
[51] = tested on: OVCAR-8 ovarian
[52] = tested on: HCT-15 colon
[53] = tested on: SN12C renal
[54] = tested on: NCI/ADR-RES ovarian
[55] = tested on: A549 NSCLC
[56] = tested on: HT29 colon
[57] = tested on: COLO 205 colon

COC(=O)N1c2ccc3c(nc(Cc4ccccc4)n3[C@H]3CCC[C@H](C(=O)O)C3)c2CC[C@@H]1C
> 100 µM: TGI [1] | TGI [3] | TGI [4] | TGI [5] | TGI [6] | TGI [7] | TGI [8] | TGI [9] | TGI [11] | TGI [13] | TGI [14] | TGI [15] | TGI [16] | TGI [17] | TGI [18] | TGI [19] | TGI [20] | TGI [21] | TGI [22] | TGI [23] | TGI [24] | TGI [25] | TGI [27] | TGI [28] | TGI [29] | TGI [30] | TGI [32] | TGI [33] | TGI [34] | TGI [35] | TGI [36] | TGI [37] | TGI [38] | TGI [39] | TGI [41] | TGI [42] | TGI [43] | TGI [44] | TGI [45] | TGI [46] | TGI [47] | TGI [48] | TGI [49] | TGI [50] | TGI [51] | TGI [52] | TGI [53] | TGI [54] | TGI [55] | TGI [56] | TGI [57]
11.8 µM: TGI [26]
91.1 µM: TGI [12]
80.9 µM: TGI [10]
active: GI50 [25] 0.115 µM
52.7 µM: TGI [40]
27.1 µM: TGI [31]
inactive: GI50 [1] 23.4 µM | GI50 [2] 1.03 µM | GI50 [3] 17.1 µM | GI50 [4] 1.81 µM | GI50 [5] 5.67 µM | GI50 [6] 14.6 µM | GI50 [7] 0.431 µM | GI50 [8] 93.6 µM | GI50 [9] 30.9 µM | GI50 [10] 3.84 µM | GI50 [11] 34.3 µM | GI50 [12] 12.2 µM | GI50 [13] 11.7 µM | GI50 [14] 16.4 µM | GI50 [15] 13.8 µM | GI50 [16] 20.8 µM | GI50 [17] 14.3 µM | GI50 [18] 16.9 µM | GI50 [19] 11.3 µM | GI50 [20] 5.68 µM | GI50 [21] 5.86 µM | GI50 [22] 6.55 µM | GI50 [23] 17.9 µM | GI50 [24] 27.7 µM | GI50 [26] 1.62 µM | GI50 [27] 5.7 µM | GI50 [28] 13.3 µM | GI50 [29] 10.2 µM | GI50 [30] 3.18 µM | GI50 [31] 8.36 µM | GI50 [32] 46.4 µM | GI50 [33] 6.84 µM | GI50 [34] 8.59 µM | GI50 [35] 14.1 µM | GI50 [36] 15.7 µM | GI50 [37] 15.8 µM | GI50 [38] 2.08 µM | GI50 [39] 3.25 µM | GI50 [40] 12.4 µM | GI50 [41] 11.3 µM | GI50 [42] 5.03 µM | GI50 [43] 17.6 µM | GI50 [44] 3.17 µM | GI50 [45] 6.13 µM | GI50 [46] 13.2 µM | GI50 [47] 17.2 µM | GI50 [48] 48.5 µM | GI50 [49] 2.87 µM | GI50 [50] 12.6 µM | GI50 [51] 28.2 µM | GI50 [52] 16.2 µM | GI50 [53] 17.3 µM | GI50 [54] 65.2 µM | GI50 [55] 27.6 µM | GI50 [56] 5.44 µM | GI50 [57] 4.95 µM
30.2 µM: TGI [2]
